# Measurements published in patent US5116981A, “Antiinflammatory leukotriene B4 analogs” (The Upjohn Company, priority 1989, dated 1992).
# Key:
# [1] = stability of the isolated product on storage; type: physicochemical; details: for stability in solution: methanol solution; for stability of the neat isolated product: as isolated oil
# [2] = test system: neutrophil; details: cited from earlier work
# [3] = test system: chemotactic response of equimolar concentrations of LTB4; details: cited from earlier work
Structure (SMILES),stability in solution [1],stability of the neat isolated product [1],further results
"CCCCC/C=C\CC(O)C#Cc1cccc(CC(O)CCCC(=O)O)c1 (stereo not shown) [Example 24, Benzenehexanoic acid, delta-hydroxy-3-[(3-hydroxy-5-undecen-1-ynyl)]]",stable as a methanol solution,,
CCCCCC=CCC(O)C=CC=CC=CC(O)CCCC(=O)N(C)C (stereo not shown) [dimethylamide of LTB4],,,agonist activity ([2]; at the concentrations that inhibit degranulation): no appreciable agonist activity; inhibition of neutrophil degranulation induced by LTB4 [2]: inhibit neutrophil degranulation induced by LTB4
"CCCCC/C=C\CC(O)/C=C/c1cccc(CC(O)CCCC(=O)O)n1 (stereo not shown) [Example 35, 2-Pyridinehexanoic acid, delta-hydroxy-6-(3-hydroxy-1,5-undecadienyl) -]",stable methanol solution,unstable oil,
"CCCCC/C=C\CC(O)C#Cc1cccc(CC(O)CCCC(=O)O)n1 (stereo not shown) [Example 36, 2-Pyridinehexanoic acid, delta-hydroxy-6-(3-hydroxy-5-undecen-1-ynyl)-]",,unstable pale oil,
CCCCC/C=C\C[C@H](/C=C/C=C/C=C\[C@H](CCCC(=O)O)OC(C)=O)OC(C)=O [LTB4 diacetate],,,inhibition of chemotactic response to LTB4 [3]: competitively inhibit chemotactic response
